≈ marks a conversion by molar mass, not a printed value. Read-outs that look alike come from different tables or passages of the source.
Columns and labels:
S. aureus NRS384 = assay: Broth minimum inhibitory concentration (MIC) assay 2; assay type: cell-based, Staphylococcus aureus; details: for MIC: Staphylococcus aureus, read-out: S. aureus Broth MIC
Protocol: To test the potency of rifamycin analogs of the disclosure in vitro, a broth growth inhibition assay was developed. For the assay, S. aureus NRS384 was grown in Tryptic Soy Broth (TSB) overnight, then sub-cultured 1:50 in fresh TSB and grown for an additional two hours. The culture was then pelleted via centrifugation and washed twice in PBS. The culture was then diluted to 1×10^6 cfu/mL in TSB and 100 μL of the suspension was added per well to a 2 mL dilution plate in triplicate. […] The plates were sealed and incubated at 37° C. with shaking for 24 hours, then 150 μL of each sample was added to 96 well microtiter plates and the OD600 nm was read on a Spectramax i3 Minimax 300.
The broth MIC experiments were assessed in at least two independent experiments and the median value is captured below unless indicated otherwise.

[1] = system: intracellular S. aureus NRS384 in THP-1 macrophages; assay: Intracellular killing assay 2 (rifamycin analogs, S. aureus in THP-1 macrophages); assay type: cell-based, Staphylococcus aureus; details: Staphylococcus aureus, NRS384, 2 h, read-out: S. aureus Intracellular killing MIC
Protocol: THP-1 monocytic cell line was grown in media (RMPI+10% FBS+1% Penicillin/Streptomycin), then seeded at a density of 1e5 cells/well in a 96 well plate and differentiated into macrophages for three days prior to infection using 200 nM PMA. An overnight culture of S. aureus NRS384 was grown in RPMI, washed twice with PBS and resuspended at 1e7 cfu/mL in PBS. THP-1 were washed with warm media (RMPI without FBS) to remove the Penicillin/Streptomycin and then infected with the S. aureus suspension at a multiplicity of infection of 10:1 (S. aureus: macrophages). Plates were spun at 300×g for 5 minutes to synchronize adhesion of the bacteria, then incubated at 37° C. for 2 hours. Free-floating bacteria were removed by washing 2× with warm media and remaining extracellular S. aureus were killed by addition of media containing gentamicin (50 ug/mL). […] The compounds were added in media containing 50 µg/mL gentamicin to prevent extracellular growth of S. aureus. After 2 hours, plates were washed 2× with warm RPMI without FBS, and 100 ul of THP-1 lysis buffer (0.1% Triton in PBS) was added to each well. S. aureus survival was enumerated by colony forming units through serial dilution and plating onto TSA.
The intracellular MIC value indicated represents the median value of at least two independent experiments, unless indicated otherwise.

[2] = S. aureus NRS384 in TSB, 24 hours at 37° C., OD600, median of at least two independent experiments
[3] = lowest concentration giving intracellular S. aureus below limit of detection (50 cfu/mL) in THP-1 macrophages, median of at least two experiments

Structure (SMILES)	MIC (S. aureus NRS384; [2])	MIC [1, 3]	MIC (S. aureus NRS384; NRS384, 24 h)	MIC [1]	S. aureus Broth MIC (S. aureus NRS384; [2])
CO[C@H]1/C=C/O[C@@]2(C)Oc3c(C)c(O)c4c(=O)c(c5oc6cc(OCC7CCCN(C)C7)ccc6nc-5c4c3C2=O)NC(=O)/C(C)=C\C=C\[C@H](C)[C@H](O)[C@@H](C)[C@@H](O)[C@@H](C)[C@H](OC(C)=O)[C@@H]1C (stereo partly shown) [Analog 16f]	0.0156 µM (≈ 0.0142 µg/mL)	1 µM (≈ 0.912 µg/mL)	–	–	–
CO[C@H]1/C=C/O[C@@]2(C)Oc3c(C)c(O)c4c(=O)c(c5oc6cc(OCC7CCN(C)CC7)ccc6nc-5c4c3C2=O)NC(=O)/C(C)=C\C=C\[C@H](C)[C@H](O)[C@@H](C)[C@@H](O)[C@@H](C)[C@H](OC(C)=O)[C@@H]1C [Analog 16g]	0.0156 µM (≈ 0.0142 µg/mL)	0.2 µM (≈ 0.182 µg/mL)	–	–	–
CO[C@H]1/C=C/O[C@@]2(C)Oc3c(C)c(O)c4c(=O)c(c5oc6cc(OCCN7CCN(C)CC7)ccc6nc-5c4c3C2=O)NC(=O)/C(C)=C\C=C\[C@H](C)[C@H](O)[C@@H](C)[C@@H](O)[C@@H](C)[C@H](OC(C)=O)[C@@H]1C [Analog 16h]	0.0156 µM (≈ 0.0145 µg/mL)	1 µM (≈ 0.927 µg/mL)	–	–	–
CO[C@H]1/C=C/O[C@@]2(C)Oc3c(C)c(O)c4c(=O)c(c5oc6cc(OCCN7CCOCC7)ccc6nc-5c4c3C2=O)NC(=O)/C(C)=C\C=C\[C@H](C)[C@H](O)[C@@H](C)[C@@H](O)[C@@H](C)[C@H](OC(C)=O)[C@@H]1C [Analog 16i]	0.0156 µM (≈ 0.0143 µg/mL)	1 µM (≈ 0.914 µg/mL)	–	–	–
CO[C@H]1/C=C/O[C@@]2(C)Oc3c(C)c(O)c4c(=O)c(c5oc6cc(OCC7CCN(C)C7)ccc6nc-5c4c3C2=O)NC(=O)/C(C)=C\C=C\[C@H](C)[C@H](O)[C@@H](C)[C@@H](O)[C@@H](C)[C@H](OC(C)=O)[C@@H]1C (stereo partly shown) [Analog 16j]	0.0625 µM (≈ 0.0561 µg/mL)	1 µM (≈ 0.898 µg/mL)	–	–	–
CO[C@H]1/C=C/O[C@@]2(C)Oc3c(C)c(O)c4c(=O)c(c5oc6cc(OCCN7CCCC7)ccc6nc-5c4c3C2=O)NC(=O)/C(C)=C\C=C\[C@H](C)[C@H](O)[C@@H](C)[C@@H](O)[C@@H](C)[C@H](OC(C)=O)[C@@H]1C [Analog 16k]	0.000977 µM (≈ 0.000877 µg/mL)	1 µM (≈ 0.898 µg/mL)	–	–	–
CO[C@H]1/C=C/O[C@@]2(C)Oc3c(C)c(O)c4c(=O)c(c5oc6cc(OCC7CCCN7C)ccc6nc-5c4c3C2=O)NC(=O)/C(C)=C\C=C\[C@H](C)[C@H](O)[C@@H](C)[C@@H](O)[C@@H](C)[C@H](OC(C)=O)[C@@H]1C (stereo partly shown) [Analog 16l]	0.00391 µM (≈ 0.00351 µg/mL)	1 µM (≈ 0.898 µg/mL)	–	–	–
CO[C@H]1/C=C/O[C@@]2(C)Oc3c(C)c(O)c4c(=O)c(c5oc6cc(OCCN7CCCCC7)ccc6nc-5c4c3C2=O)NC(=O)/C(C)=C\C=C\[C@H](C)[C@H](O)[C@@H](C)[C@@H](O)[C@@H](C)[C@H](OC(C)=O)[C@@H]1C [Analog 16m]	0.00391 µM (≈ 0.00357 µg/mL)	1 µM (≈ 0.912 µg/mL)	–	–	–
CO[C@H]1/C=C/O[C@@]2(C)Oc3c(C)c(O)c4c(=O)c(c5oc6cc(OCCN7CCCCCC7)ccc6nc-5c4c3C2=O)NC(=O)/C(C)=C\C=C\[C@H](C)[C@H](O)[C@@H](C)[C@@H](O)[C@@H](C)[C@H](OC(C)=O)[C@@H]1C [Analog 16n]	0.0156 µM (≈ 0.0144 µg/mL)	1 µM (≈ 0.926 µg/mL)	–	–	–
CO[C@H]1/C=C/O[C@@]2(C)Oc3c(C)c(O)c4c(=O)c(c5oc6cc(OCCCN(C)C)ccc6nc-5c4c3C2=O)NC(=O)/C(C)=C\C=C\[C@H](C)[C@H](O)[C@@H](C)[C@@H](O)[C@@H](C)[C@H](OC(C)=O)[C@@H]1C [Analog 16o]	0.00391 µM (≈ 0.00346 µg/mL)	0.2 µM (≈ 0.177 µg/mL)	–	–	–
CO[C@H]1/C=C/O[C@@]2(C)Oc3c(C)c(O)c4c(=O)c(c5oc6cc(OCCCCN(C)C)ccc6nc-5c4c3C2=O)NC(=O)/C(C)=C\C=C\[C@H](C)[C@H](O)[C@@H](C)[C@@H](O)[C@@H](C)[C@H](OC(C)=O)[C@@H]1C [Analog 16p]	0.0156 µM (≈ 0.014 µg/mL)	1 µM (≈ 0.9 µg/mL)	–	–	–
CO[C@H]1/C=C/O[C@@]2(C)Oc3c(C)c(O)c4c(=O)c(c5oc6cc(OCCN7CC8CCC7C8)ccc6nc-5c4c3C2=O)NC(=O)/C(C)=C\C=C\[C@H](C)[C@H](O)[C@@H](C)[C@@H](O)[C@@H](C)[C@H](OC(C)=O)[C@@H]1C [Analog 16q]	0.00391 µM (≈ 0.00361 µg/mL)	1 µM (≈ 0.924 µg/mL)	–	–	–
CO[C@H]1/C=C/O[C@@]2(C)Oc3c(C)c(O)c4c(=O)c(c5oc6cc(OCCNCCOCCN7CC7)ccc6nc-5c4c3C2=O)NC(=O)/C(C)=C\C=C\[C@H](C)[C@H](O)[C@@H](C)[C@@H](O)[C@@H](C)[C@H](OC(C)=O)[C@@H]1C [Analog 16r]	–	–	0.0156 µM (≈ 0.0149 µg/mL)	1 µM (≈ 0.957 µg/mL)	–
CO[C@H]1/C=C/O[C@@]2(C)Oc3c(C)c(O)c4c(=O)c(c5oc6cc(OCCOCCN(C)C)ccc6nc-5c4c3C2=O)NC(=O)/C(C)=C\C=C\[C@H](C)[C@H](O)[C@@H](C)[C@@H](O)[C@@H](C)[C@H](OC(C)=O)[C@@H]1C [Analog 16s]	0.0625 µM (≈ 0.0573 µg/mL)	1 µM (≈ 0.916 µg/mL)	–	–	–
CCN(CC)CCOc1ccc2nc3c4c5c6c(C)c(O)c4c(=O)c(c-3oc2c1)NC(=O)/C(C)=C\C=C\[C@H](C)[C@H](O)[C@@H](C)[C@@H](O)[C@@H](C)[C@H](OC(C)=O)[C@H](C)[C@@H](OC)/C=C/O[C@@](C)(O6)C5=O [Analog 16t]	0.0625 µM (≈ 0.0563 µg/mL)	1 µM (≈ 0.9 µg/mL)	–	–	–
CO[C@H]1/C=C/O[C@@]2(C)Oc3c(C)c(O)c4c(=O)c(c5oc6cc(OCCN(C(C)C)C(C)C)ccc6nc-5c4c3C2=O)NC(=O)/C(C)=C\C=C\[C@H](C)[C@H](O)[C@@H](C)[C@@H](O)[C@@H](C)[C@H](OC(C)=O)[C@@H]1C [Analog 16u]	1 µM (≈ 0.928 µg/mL)	1 µM (≈ 0.928 µg/mL)	–	–	–
CO[C@H]1/C=C/O[C@@]2(C)Oc3c(C)c(O)c4c(=O)c(c5oc6cc(OCCN(C)c7ccccn7)ccc6nc-5c4c3C2=O)NC(=O)/C(C)=C\C=C\[C@H](C)[C@H](O)[C@@H](C)[C@@H](O)[C@@H](C)[C@H](OC(C)=O)[C@@H]1C [Analog 16v]	0.0625 µM (≈ 0.0584 µg/mL)	1 µM (≈ 0.935 µg/mL)	–	–	–
CO[C@H]1/C=C/O[C@@]2(C)Oc3c(C)c(O)c4c(=O)c(c5oc6cc(OCc7ccccc7CN(C)C)ccc6nc-5c4c3C2=O)NC(=O)/C(C)=C\C=C\[C@H](C)[C@H](O)[C@@H](C)[C@@H](O)[C@@H](C)[C@H](OC(C)=O)[C@@H]1C [Analog 16w]	0.0625 µM (≈ 0.0593 µg/mL)	> 1 µM	–	–	–
CO[C@H]1/C=C/O[C@@]2(C)Oc3c(C)c(O)c4c(=O)c(c5oc6cc(OCCNC(C)=O)ccc6nc-5c4c3C2=O)NC(=O)/C(C)=C\C=C\[C@H](C)[C@H](O)[C@@H](C)[C@@H](O)[C@@H](C)[C@H](OC(C)=O)[C@@H]1C [Analog 16x]	0.000977 µM (≈ 0.000866 µg/mL)	> 1 µM	–	–	–
CO[C@H]1/C=C/O[C@@]2(C)Oc3c(C)c(O)c4c(=O)c(c5oc6cc(OCCn7ccnc7)ccc6nc-5c4c3C2=O)NC(=O)/C(C)=C\C=C\[C@H](C)[C@H](O)[C@@H](C)[C@@H](O)[C@@H](C)[C@H](OC(C)=O)[C@@H]1C [Analog 16y]	0.0156 µM (≈ 0.014 µg/mL)	> 1 µM	–	–	–
CO[C@H]1/C=C/O[C@@]2(C)Oc3c(C)c(O)c4c(=O)c(c5oc6cc(OCCN7CCC7)ccc6nc-5c4c3C2=O)NC(=O)/C(C)=C\C=C\[C@H](C)[C@H](O)[C@@H](C)[C@@H](O)[C@@H](C)[C@H](OC(C)=O)[C@@H]1C [Analog 16z-1]	0.00391 µM (≈ 0.00346 µg/mL)	1 µM (≈ 0.884 µg/mL)	–	–	–
CO[C@H]1/C=C/O[C@@]2(C)Oc3c(C)c(O)c4c(=O)c(c5oc6cc(OCCN(C)C(C)=O)ccc6nc-5c4c3C2=O)NC(=O)/C(C)=C\C=C\[C@H](C)[C@H](O)[C@@H](C)[C@@H](O)[C@@H](C)[C@H](OC(C)=O)[C@@H]1C [Analog 16z]	0.00391 µM (≈ 0.00352 µg/mL)	> 1 µM	–	–	–
CO[C@H]1/C=C/O[C@@]2(C)Oc3c(C)c(O)c4c(=O)c(c5oc6cc(F)ccc6nc-5c4c3C2=O)NCC(=O)/C(C)=C\C=C\[C@H](C)[C@H](O)[C@@H](C)[C@@H](O)[C@@H](C)[C@H](OC(C)=O)[C@@H]1C [Analog P3]	–	–	–	–	0.0156 µM
CO[C@H]1/C=C/O[C@@]2(C)Oc3c(C)c(O)c4c(=O)c(c5oc6cc(N7CCC(N(C)C)CC7)cc(O)c6nc-5c4c3C2=O)NC(=O)/C(C)=C\C=C\[C@H](C)[C@H](O)[C@@H](C)[C@@H](O)[C@@H](C)[C@H](OC(C)=O)[C@@H]1C [Rifalog, reference compound]	0.000977 µM (≈ 0.000906 µg/mL)	–	–	–	–
